Converted amounts (≈) assume the structure as drawn.
Columns and labels:
[1] = tested on: LX-1 human lung carcinoma xenograft; experiment: In vivo antitumor activity in mice vs. LX-1 human lung carcinoma xenograft
[2] = tested on: MX-1 human mammary carcinoma xenograft; experiment: In vivo antitumor activity in mice vs. MX-1 human mammary carcinoma xenograft
[3] = tested on: variety of tumor models in mice; experiment: In vivo activity against several tumor models in mice
L1210 leukemia cells = experiment: Inhibition of L1210 leukemia cells in plate assays; assay type: cell-based; conditions: Mus musculus
Experimental: Et's 722 (Compound 6) and 736 (Compound 7)inhibit L1210 leukemia cells to the extent of 90% in plate assays at 2.5 and 5.0 μg/ml, respectively.

P-388 leukemia cells = experiment: In vivo antitumor activity in mice vs. P-388 leukemia; conditions: for T/C vs. P-388 / survivors, P-388: mice
M-5076 ovarian sarcoma = experiment: In vivo antitumor activity in mice vs. M-5076 ovarian sarcoma
B-16 melanoma = experiment: In vivo antitumor activity in mice vs. B-16 melanoma
Lewis lung carcinoma = experiment: In vivo antitumor activity in mice vs. Lewis lung carcinoma
[4] = tested on: HT-29 human colon cancer cell line; experiment: In vitro activity against HT-29 human colon cancer cell line; assay type: cell-based
Experimental: (§1) Compounds 3 and 5 described herein were tested in vitro against the following cell lines; P-388 murine leukemia cell line; HT-29 human colon cancer cell line; A-549 human lung adenocarcinoma cell line; and CV-1 monkey kidney cell line (non-cancerous); and the IC50 in μg/ml was determined.

[5] = tested on: P-388 murine leukemia cell line; experiment: In vitro activity against P-388 murine leukemia cell line; assay type: cell-based
Experimental: as §1

[6] = tested on: CV-1 monkey kidney cell line; experiment: In vitro activity against CV-1 monkey kidney cell line (non-cancerous); assay type: cell-based; conditions: CV-1 monkey kidney (non-cancerous)
Experimental: as §1

[7] = tested on: A-549 human lung adenocarcinoma cell line; experiment: In vitro activity against A-549 human lung adenocarcinoma cell line; assay type: cell-based
Experimental: as §1

DNA = conditions: Lown et al. 1982; Zmijewski et al. 1985; cited from earlier work
[8] = comparison Compound 1 vs. Compound 6

Molecule: COc1c(C)cc2c(c1O)C1NC(C2)[C@H](O)N2C3COC(=O)[C@]4(CSC(c5c(OC(C)=O)c(C)c6c(c53)OCO6)C12)NCCc1c4[nH]c2ccccc12 (stereo partly shown) [Compound 6]
- T/C vs. LX-1 ([1]; 50 μg/kg, mice): 200
- activity vs. MX-1 human mammary carcinoma xenograft ([2]; mice): slightly active
- in vivo activity in mice [3]: highly active in vivo in mice
- inhibition at 2.5 µg/mL (L1210 leukemia cells; at 2.5 μg/ml): 90%
- T/C vs. P-388 (P-388 leukemia cells; 25 μg/kg day): > 265
- survivors, P-388 (P-388 leukemia cells; 25 μg/kg day): 2/6
- activity vs. P-388 compared with Compound 1 (P-388 leukemia cells; comparison Compound 6 vs. Compound 1): more effective than Compound 1
- activity vs. M-5076 ovarian sarcoma (M-5076 ovarian sarcoma; mice): slightly active

Molecule: COc1c(C)cc2c(c1O)C1C3C4SC[C@]5(NCCc6c5[nH]c5ccccc65)C(=O)OCC(c5c6c(c(C)c(OC(C)=O)c54)OCO6)N3[C@@H](O)C(C2)N1C (stereo partly shown) [Compound 7]
- inhibition at 5 µg/mL (L1210 leukemia cells; at 5.0 μg/ml): 90%

Molecule: COc1cc2c(cc1O)CCN[C@]21CSC2c3c(OC(C)=O)c(C)c4c(c3C(COC1=O)N1C2C2NC(Cc3cc(C)c(OC)c(O)c32)[C@@H]1O)OCO4 (stereo partly shown) [Compound 1]
- T/C vs. LX-1 ([1]; 25 μg/kg): 0.00
- activity vs. LX-1 compared with Compound 6 [1, 8]: more active
- T/C vs. MX-1 ([2]; 37.5 μg/kg): 0.05
- activity vs. MX-1 compared with Compound 6 [2, 8]: more active
- T/C vs. B-16 (B-16 melanoma; 12.5 μg/kg): 253
- activity vs. B-16 compared with Compound 6 (B-16 melanoma; [8]): more active
- in vivo activity in mice [3]: exceedingly potent activity in vivo
- T/C vs. Lewis lung (Lewis lung carcinoma; 25 μg/kg): 0.00
- activity vs. Lewis lung compared with Compound 6 (Lewis lung carcinoma; [8]): more active
- T/C vs. P-388 (P-388 leukemia cells; 12.5 μg/kg day): 190
- survivors, P-388 (P-388 leukemia cells; 12.5 μg/kg day): 1/6
- T/C vs. M-5076 (M-5076 ovarian sarcoma; 12.5 μg/kg): 204
- survivors, M-5076 (M-5076 ovarian sarcoma; 12.5 μg/kg): 5/10
- activity vs. M-5076 compared with Compound 6 (M-5076 ovarian sarcoma; [8]): more active

Molecule: COc1cc2c(cc1O)CCN[C@]21CSC2c3c(OC(C)=O)c(C)c4c(c3C(COC1=O)N1C2C2c3c(cc(C)c(OC)c3O)CC([C@@H]1O)N2C)OCO4 (stereo partly shown) [Compound 2]
- in vivo activity in mice [3]: exceedingly potent activity in vivo

Molecule: COc1cc2c(cc1O)CCN[C@]21CSC2c3c(OC(C)=O)c(C)c4c(c3C(COC1=O)N1C2C2c3c(cc(C)c(OC)c3O)CC([C@@H]1O)N2C=O)OCO4 (stereo partly shown) [Compound 3, N^12 -Formyl Et 729]
- IC50 [4]: 2 ng/mL (≈ 2.58 nM)
- IC50 ([5]; Mus musculus, P388): 0.5 ng/mL (≈ 0.644 nM)
- IC50 ([6]; Primates): 5 ng/mL (≈ 6.44 nM)
- IC50 ([7]; A549): 2 ng/mL (≈ 2.58 nM)

Molecule: COC1=C(C)C(=O)C2=C(C1=O)C(CO)N1C(O)C3CC4C(C1C2N1CCOC41)N3C (stereo not shown) [naphthyridinomycin]
- reactions with DNA (DNA): reversible reactions

Molecule: Et 743 N^12 -Oxide [Compound 5]
- IC50 against HT-29 [4]: 2.5 ng/mL
- IC50 against P-388 [5]: 1 ng/mL
- IC50 against CV-1 [6]: 2.5 ng/mL
- IC50 against A-549 [7]: 2.5 ng/mL

Molecule: COC1=C(C)C(=O)C2=C(C1=O)C1C3CC4=C(C(=O)C(OC)=C(C)C4=O)C(CNC(=O)C(C)=O)N3C(C#N)C(C2)N1C (stereo not shown) [saframycin A]
- reactions with DNA (DNA): reversible reactions

From US5654426A, “Ecteinascidins” (priority 1995, dated 1997)
